Laboratory results: patent publication US5444064A, “Method of treating gastrointestinal malignancies” (Montefiore Medical Center, priority 1989, dated 1995)

Experiments:
HT-29 cells = assay: Cytokinetic studies (cell cycle distribution by flow cytometry), HT-29; format: cell-based, human
SW480 cells = assay: Cytokinetic studies (cell cycle distribution by flow cytometry), SW480; format: cell-based, human
[1] = tested on: disseminated colorectal cancer; settings: cited from earlier work
[2] = 5-fluorouracil 50-500 uM, 24 hour incubation

O=c1[nH]cc(F)c(=O)[nH]1 [5-fluorouracil]
depletion of G2M (HT-29 cells; [2]): nearly complete depletion of G2M | time to depletion of G2M compartment (HT-29 cells; time course, from start of incubation): ≤ 7 h | depletion of G2M (SW480 cells; [2]): nearly complete depletion of G2M | effect on cell cycle versus HT-29 (SW480 cells; 5-fluorouracil and alpha-2a-interferon alone or in combination, data not shown): qualitatively identical effects | prolongation of the block in G0/G1 (SW480 cells; data not shown): 24 h | completeness and duration of response ([1]; human, in vivo): rarely respond completely and the duration of the response is generally short | remissions ([1]; patients with disseminated colorectal cancer): 15-35% | median survival ([1]; versus untreated controls): no better than that of untreated controls
